Measured values reported in patent US8013006B2.

Key:
[1] = system: HCV replicon; experiment: microbe, parasite or virus in culture; format: cell-based; conditions: Hepatitis C virus, 48 h, read-out: Replicon IC5Os

Structure (SMILES)	IC50 [1] [nM]	melting point [°C]
CCn1c(-c2ccc(NS(=O)(=O)CC)cc2)c(C#N)c2ccc(OCCF)cc21 [Compound 549]	< 500	150 to 153
CCCS(=O)(=O)Nc1ccc(-c2c(C#N)c3ccc(OCCF)cc3n2CC)cc1 [Compound 550]	500 to 2000	183 to 185
CCn1c(-c2ccc(NS(=O)(=O)CCCCl)cc2)c(C#N)c2ccc(OCCF)cc21 [Compound 551]	500 to 2000	187 to 190
CCn1c(-c2ccc(NS(=O)(=O)C3CC3)cc2)c(C#N)c2ccc(OCCF)cc21 [Compound 552]	< 500	185 to 188
CCCS(=O)(=O)Nc1cccc(-c2c(C#N)c3ccc(C(F)(F)F)cc3n2CC)c1 [Compound 563]	500 to 2000	210 to 212
CCn1c(-c2ccc(NC(=O)C3CCC3)cc2)c(C#N)c2ccccc21 [Compound 567]	500 to 2000	238.2 to 238.6
CCn1c(-c2ccc(C(=O)NC(C)C)cc2)c(C#N)c2cc(OC)ccc21 [Compound 570]	500 to 2000	220 to 222
CCS(=O)(=O)Nc1ccc(-c2c(C#N)c3cc(OC)ccc3n2C)cc1 [Compound 580]	< 500	198 to 200
CCCS(=O)(=O)Nc1ccc(-c2c(C#N)c3cc(Cl)ccc3n2CC)cc1 [Compound 601]	< 500	195 to 200
CCn1c(-c2ccc(NS(=O)(=O)C3CC3)cc2)c(C#N)c2cc(Cl)ccc21 [Compound 602]	< 500	179 to 184
CCCOC(=O)Nc1cccc(-c2c(C#N)c3cc(N4CCOCC4)ccc3n2CC)c1 [Compound 606]	< 500	166 to 170
CCn1c(-c2cccc(NC(=O)OCCOC)c2)c(C#N)c2cc(N3CCOCC3)ccc21 [Compound 607]	< 500	189 to 194
COc1ccc2c(C#N)c(-c3ccc(NS(C)(=O)=O)cc3)n(CC3CC3)c2c1 [Compound 611]	500 to 2000	126 to 128
CCS(=O)(=O)Nc1ccc(-c2c(C#N)c3ccc(OC)cc3n2CC2CC2)cc1 [Compound 612]	500 to 2000	198 to 200
CS(=O)(=O)Nc1ccc(-c2c(C#N)c3ccc(OC(F)F)cc3n2CC2CC2)cc1 [Compound 613]	< 500	198 to 200
CCS(=O)(=O)Nc1ccc(-c2c(C#N)c3ccc(OC(F)F)cc3n2CC2CC2)cc1 [Compound 614]	< 500	176 to 177
CCCCS(=O)(=O)Nc1ccc(-c2c(C#N)c3cc(Cl)ccc3n2CC)cc1 [Compound 616]	< 500	143 to 149
CCn1c(-c2ccc(NS(=O)(=O)CCCCl)cc2)c(C#N)c2cc(Cl)ccc21 [Compound 617]	< 500	164 to 167
CCOC(=O)Nc1ccc(-c2c(C#N)c3cc(Cl)ccc3n2CC)cc1 [Compound 618]	< 500	205 to 211
CCCOC(=O)Nc1ccc(-c2c(C#N)c3cc(Cl)ccc3n2CC)cc1 [Compound 619]	500 to 2000	201 to 206
CCCn1c(-c2ccc(NS(=O)(=O)CCC)cc2)c(C#N)c2ccc(OC)cc21 [Compound 621]	500 to 2000	187 to 188
CCCn1c(-c2ccc(NS(=O)(=O)C(C)C)cc2)c(C#N)c2ccc(OC)cc21 [Compound 622]	500 to 2000	182 to 183
CCCn1c(-c2ccc(NS(=O)(=O)Cc3ccccc3)cc2)c(C#N)c2ccc(OC)cc21 [Compound 623]	500 to 2000	217 to 218
CCCn1c(-c2ccc(NC(=O)NCC)cc2)c(C#N)c2ccc(OC)cc21 [Compound 626]	500 to 2000	193 to 194
CCCNC(=O)Nc1ccc(-c2c(C#N)c3cc(Cl)ccc3n2CC)cc1 [Compound 628]	500 to 2000	221 to 226
